The source of these data is patent publication US10378059B2, “Methods and molecular pharmacodynamic biomarkers for multiple signaling pathways in response to carboxyamidotriazole orotate” (TACTICAL THERAPEUTICS, INC., priority 2013, dated 2019).

Entries after “also recorded” stand apart in the source; their conditions may differ.

Series [1] has as its system carcinoembryonic antigen-related cell adhesion molecule (CEACAM1). Kind of series: Plucked hair assay, CEACAM1 expression. It counts as cell-based, human. The method, then: (§1) Donor hairs were plucked from 5 male donor volunteers, immediately transferred to maintenance medium cultures and exposed to varying doses of CTO equivalent to […], 5 μM, and 10 μM carboxyamidotriazole (CAI). The cultures were either maintained for 8 hrs or 24 hrs. Controls were used, for example, Tarceva®. (EGFR inhibitor) at 1 μM and BEZ235 (PI3K inhibitor) at 1 μM for 24 hrs only. Once in culture hairs were collected at the specified periods for mRNA isolation or protein analysis to ensure quality control. Small amounts of RNA (about up to 500 ng) are extracted from the bulbs at the end of the anagen hairs. Representative cDNA was prepared from the RNA and gene expression levels determined by microarray analysis. Biotin labeling, fragmentation and hybridization to 048 Affymetrix U133 plus 2.0 array was done. Bioinformatic analysis was done to identify CTO induced gene expression changes.

Series [2] concerns ex vivo cultured human anagen hairs. The series can be described thus: Plucked hair biomarker platform: global transcriptional response by microarray (probe list, Table 1). Particulars: for transcriptional response (differential probes): CTO equivalent to 2, 5, 10 μM CAI, 8 hr and 24 hr, BEZ235 and Tarceva 1 μM, 24 hr.
The subject of series [3] is early growth response 1 gene product (EGR1). The series can be described thus: Plucked hair assay, EGR1 expression. The note with it: for EGR1 regulation: BEZ235 and Tarceva 1 μM, 24 hr. The format is cell-based, human.
Method: Donor hairs were plucked from 5 male donor volunteers, immediately transferred to maintenance medium cultures and exposed to varying doses of CTO equivalent to 2 M, 5 μM, and 10 μM carboxyamidotriazole (CAI). The cultures were either maintained for 8 hrs or 24 hrs. Controls were used, for example, Tarceva®. (EGFR inhibitor) at 1 μM and BEZ235 (PI3K inhibitor) at 1 μM for 24 hrs only. Once in culture hairs were collected at the specified periods for mRNA isolation or protein analysis to ensure quality control. Small amounts of RNA (about up to 500 ng) are extracted from the bulbs at the end of the anagen hairs. Representative cDNA was prepared from the RNA and gene expression levels determined by microarray analysis. Biotin labeling, fragmentation and hybridization to 048 Affymetrix U133 plus 2.0 array was done. Bioinformatic analysis was done to identify CTO induced gene expression changes.
Series [4] has as its system non-voltage dependent calcium signaling genes. The series can be described thus: Plucked hair assay, non-voltage dependent calcium signaling Signature Score. The format is cell-based, human. Particulars: across CTO treatment; literature determined regulation and ANOVA determined set. The protocol:
as §1, with “changes. […]” for “changes.”

For series [5], the system named is Canonical Calcium signaling. The series can be described thus: Plucked hair assay, Canonical Calcium signaling Signature Score (KEGG and IPA). The format is cell-based, human. Particulars: KEGG Calcium Signaling Pathway and IPA predicted regulation. The protocol:
Canonical calcium signaling was analyzed using the KEGG Calcium Signaling Pathway and IPA to predict regulation of canonical calcium signaling. […] Using ANOVA to filter for informative genes (FDR<0.05 & 1.5) it was noted that suppression of canonical calcium genes occurred across CTO treatment, however this only represented 7/68 canonical pathway genes.
as §1, with “changes. […]” for “changes.”

A further series has as its system HSP90 pathway. Kind of series: Plucked hair assay, HSP90 Signature Score. Particulars: different doses of CTO, 8 hr and 24 hr; dose dependent. It counts as cell-based, human. The protocol: as §1, with “Bioinformatic analysis was done to identify CTO induced gene expression changes.” left out
The next series concerns HDAC pathway. Kind of series: Plucked hair assay, HDAC Signature Score. The format is cell-based, human. Particulars: different doses of CTO, 8 hr and 24 hr. The method, then: as §1, with “Bioinformatic analysis was done to identify CTO induced gene expression changes.” left out
For the next series, the system named is WNT β-catenin pathway. Kind of series: Plucked hair assay, WNT β-catenin Signature Score. It counts as cell-based, human. The note with it: 24 hrs exposure to CTO. The protocol:
as §1, with “Bioinformatic analysis was done to identify CTO induced gene expression changes.” left out

For the next series, the system named is Dystonin. The series can be described thus: Plucked hair assay, Dystonin expression. The format is cell-based, human. The protocol:
as §1

A further series has as its system TGF-β signaling. Kind of series: Plucked hair assay, TGF-β signaling. The format is cell-based, human. The protocol: as §1
The subject of the next series is NOTCH pathway. The series can be described thus: Plucked hair assay, NOTCH Signature Score. Particulars: different doses of CTO, 8 hr and 24 hr. The format is cell-based, human. The protocol:
as §1, with “Bioinformatic analysis was done to identify CTO induced gene expression changes.” left out

The next series has as its system MEK pathway. Kind of series: Plucked hair assay, MEK Signature Score. It counts as cell-based, human. Particulars: all CTO treatments at 8 hrs and 24 hrs. The protocol: as §1, with “Bioinformatic analysis was done to identify CTO induced gene expression changes.” left out
Series [6] concerns Growth Factor Signature (GFS) pathway. Kind of series: Plucked hair assay, Growth Factor Signature Score. It counts as cell-based, human. Particulars: different doses of CTO, 8 hr and 24 hr; most obvious at 8 hrs. The protocol: as §1, with “Bioinformatic analysis was done to identify CTO induced gene expression changes.” left out
For another series, the system named is CAI IPA pathway. Kind of series: Plucked hair assay, CAI IPA Signature Score. It counts as cell-based, human. The note with it: different doses of CTO, 8 hr and 24 hr; except at 10 μM. The protocol:
as §1, with “changes. […]” for “changes.”

The next series concerns CAI Ex vivo pathway. Kind of series: Plucked hair assay, CAI Ex vivo Signature Score. The format is cell-based, human. Particulars: different doses of CTO, 8 hr and 24 hr; tissue specific direction of change. The method, then:
as §1, with “changes. […]” for “changes.”

A further series deals with EGFR pathway. Kind of series: Plucked hair assay, EGFR Signature Score. The format is cell-based, human. The note with it: all doses of CTO and time points; Tarceva 1 μM 24 hr. The protocol: as §1, with “Bioinformatic analysis was done to identify CTO induced gene expression changes.” left out
In series [7] the test system is cancer patients with different tumor types. It counts as in vivo. Particulars: CTO given alone. From the text: Thus enormous efforts are directed to the development of molecular pharmacodynamics biomarkers of signaling outputs of CTO to design combinatorial regimens against molecular targets in different types of cancers. Current methods for assessing pathway activation in tumors involve the measurement of the drug targets, known oncogenes or known tumor suppressors. However, one pathway can be activated at multiple points so it is not feasible to assess pathway activation by evaluating just known cancer associated genes.

For the next series, the system named is P53 pathway. The series can be described thus: Plucked hair assay, P53 Signature Score. Particulars: all doses of CTO, 8 hr and 24 hr. The format is cell-based, human. The method, then: as §1, with “Bioinformatic analysis was done to identify CTO induced gene expression changes.” left out
The subject of another series is RAS pathway. Kind of series: Plucked hair assay, RAS pathway Signature Score. The note with it: different doses of CTO, 8 hr and 24 hr; most obvious at 8 hrs. It counts as cell-based, human. The protocol: as §1, with “Bioinformatic analysis was done to identify CTO induced gene expression changes.” left out
Another series deals with PI3K pathway. Kind of series: Plucked hair assay, PI3K Signature Score. It counts as cell-based, human. The note with it: CTO 8 hr and 24 hr; BEZ235 1 μM 24 hr. The protocol: as §1, with “Bioinformatic analysis was done to identify CTO induced gene expression changes.” left out
The next series relates to PI3K/mTOR pathway. The series can be described thus: Plucked hair assay, PI3K/mTOR Signature Score. It counts as cell-based, human. Particulars: CTO 8 hr and 24 hr; BEZ235 1 μM 24 hr. The protocol: as §1, with “Bioinformatic analysis was done to identify CTO induced gene expression changes.” left out

As to `C#Cc1cccc(Nc2ncnc3cc(OCCOC)c(OCCOC)cc23)c1` [Tarceva®, erlotinib, reference compound], the CEACAM1 regulation entry in series [1] is “down regulated”. The “transcriptional response (differential probes)” value in series [2] was “less differential probes than CTO or BEZ235”. Also, in [3], the EGR1 regulation entry was “suppressed”.

On to `NC(=O)c1nnn(Cc2cc(Cl)c(C(=O)c3ccc(Cl)cc3)c(Cl)c2)c1N.O=C(O)c1cc(=O)[nH]c(=O)[nH]1` [CTO, carboxyamidotriazole orotate], for which, in series [4], the “non-voltage dependent calcium genes signature” value was “strongly suppressed; also recorded: strong suppression”. Besides, in series [5], the “canonical calcium signaling pathway signature” value was “No significant suppression”. Also, in series [1], the CEACAM1 regulation result was “down regulated”. The HSP90 signature result in the series with HSP90 pathway is “strong suppression”. Further, the “net result probes overlapping between the 8 hr and 24 hr lists” value in [2] (442 unique annotated genes) is 558. In addition, the results for the probes observed in [2] (8 hours) and in series [2] (24 hrs) were 1440 and 2961, respectively. In addition, the “transcriptional response (differential probes)” value in series [2] is listed as “differential probes increased in a dose related manner; also recorded: greatest effect transcriptionally”. Further, the “fold range of the overlapping probes” value in [2] (high dose CTO/24 hr) was −75 to +33 fold. The HDAC signature entry in the series with HDAC pathway was “strongly suppressed; also recorded: weak suppression”. For the same compound, the EGR1 up regulation in series [3] (varying doses of CTO at 8 hr and 24 hrs) was found to be 6 fold. The “WNT β-catenin signature” value in the series on WNT β-catenin pathway is reported as “modes suppression; also recorded: inhibitory at 24 hr”. In the series with Dystonin, the Dystonin down regulation is 60 fold. Further, the TGF-β signaling entry with TGF-β signaling is on record as “inhibited”. Also, in the series on NOTCH pathway, the Notch signature result is on record as “no suppression; also recorded: no activity”. In addition, the MEKi signature entry with MEK pathway is given as “strongly suppressed; also recorded: strong inhibition”. Further, in series [6], the “Growth Factor signature (GFS)” value is “modest down regulation”. Moreover, the “CAI signature (IPA, 29 genes)” value in the series with CAI IPA pathway is recorded as “some suppression”. In addition, in the series with CAI Ex vivo pathway, the “IPA CAI list, ex vivo 14 gene set” value is given as “strong dose dependent suppression”. Also, the EGFR signature result with EGFR pathway was “strongly suppressed; also recorded: very strong suppression; also recorded: stronger than that in Tarceva® at all doses of CTO and time points”. In addition, in series [7] (cancer patients with different genomic mutations), the tumor response result is recorded as “stable disease or partial response showing tumor shrinkage”. Besides, the safety and tolerability result in series [7] (cancer patients, maximum tolerated dose not determined) was “safe and tolerable”. The P53 signature result in the series with P53 pathway is recorded as “stabilized; also recorded: induction; also recorded: induced”. Besides, the RAS signature entry in the series with RAS pathway is on record as “modest down regulation”.

On to `Cn1c(=O)n(-c2ccc(C(C)(C)C#N)cc2)c2c3cc(-c4cnc5ccccc5c4)ccc3ncc21` [BEZ235, reference compound], for which, in the series on PI3K pathway, the PI3K signature result is listed as “Strong suppression”. In addition, the EGR1 regulation result in [3] was “suppressed”. Moreover, the PI3K/mTOR signature entry with PI3K/mTOR pathway is listed as “Strong suppression”.
